Assay results from CN102503942A, “一种氟喹诺酮衍生物及其制备和药物应用” (Individual, priority 2011, dated 2012).
Values after ≈ are worked out from the molar mass of the structure shown.

Test system: Staphylococcus aureus, ATCC 25923 (金黄色葡萄球菌,ATCC 25923)
Test: MIC by broth microdilution (微量肉汤稀释法)
Assay type: cell-based
Conditions: ATCC25923, 16 h, MH broth, pH 7.2~7.4, 35℃, 16~20 h

Row | Compound | MIC
1 | COc1c(N2CCN3CCCC3C2)c(F)cc2c(=O)c(C(=O)O)cn(C3CC3)c12 (centres unmarked) [例子2, 7-(六氢吡咯并[1,2-a]吡嗪基)-1-环丙基-6-氟-1,4-二氢-8-甲氧基-4-氧代-3-喹啉羧酸] | < 0.1 µg/mL
2 | COc1c(N2CCN3CCNCC3C2)c(F)cc2c(=O)c(C(=O)O)cn(C3CC3)c12 (centres unmarked) [例子3, 7-(八氢-2H-吡嗪并[1,2-a]吡嗪基)-1-环丙基-6-氟-1,4-二氢-8-甲氧基-4-氧代-3-喹啉羧酸] | < 0.3 µg/mL
3 | CC1COc2c(N3CCN(C)CC3)c(F)cc3c(=O)c(C(=O)O)cn1c23 (centres unmarked) [氧氟沙星, reference compound] | 0.3 µg/mL (≈ 0.83 µM)
4 | COc1c(N2CCN3CCCCC3C2)c(F)cc2c(=O)c(C(=O)O)cn(C3CC3)c12 (centres unmarked) [例子1, 7-(八氢-2H-吡啶并[1,2-a]吡嗪基)-1-环丙基-6-氟-1,4-二氢-8-甲氧基-4-氧代-3-喹啉羧酸] | < 0.3 µg/mL
5 | COc1c(N2CCN3CCNC3C2)c(F)cc2c(=O)c(C(=O)O)cn(C3CC3)c12 (centres unmarked) [例子4, 7-(六氢咪唑并[1,2-a]吡嗪基)-1-环丙基-6-氟-1,4-二氢-8-甲氧基-4-氧代-3-喹啉羧酸] | < 0.1 µg/mL
